According to publication PMC7076710, “Synthesis, Identification, and Structure–Activity Relationship Analysis of GATA4 and NKX2-5 Protein–Protein Interaction Modulators” (Journal of Medicinal Chemistry, 2019):
Blank lines part the entries; values can stand above or below the compound they belong to.

Target: T1, GATA4–NKX2-5 transcriptional synergy (Mus musculus, UniProt P42582+Q08369)
T1 construct: expressed in transfected cells; host or cells: COS-1
Assay: GATA4–NKX2-5 transcriptional synergy luciferase reporter assay (3xNKE reporter, COS-1 cells)
Format: cell-based
Experimental: To screen compounds for the GATA4–NKX2-5 interaction, we have developed a luciferase reporter assay based on their property to activate gene transcription synergistically through the NKX2-5 binding site on DNA.[28] In this assay, we transfected mammalian COS-1 cells with protein expression vectors for GATA4 and NKX2-5 proteins together with artificial luciferase reporter vector containing three high affinity binding sites for NKX2-5 (NKE). […] All 257 compounds were tested in two concentrations, 3 and 10 μM. Compounds either inhibited, enhanced, or had no effect on the GATA4–NKX2-5 transcriptional synergy. To investigate the selectivity of the active compounds, we tested their effects on NKX2-5 transcriptional activity by using the same luciferase reporter vector as in transcriptional synergy assay with three NKE sites (Figure 3B). Furthermore, we used GATA luciferase reporter assay to examine if compounds have an effect on GATA4 transcriptional activity. In this assay, we cotransfected the cells with a GATA4 protein expression vector and a reporter vector with tandem GATA4 binding sites (Figure 3C). Previously we have reported that compound 1 inhibited the GATA4–NKX2-5 transcriptional synergy at micromolar concentrations (IC50 = 3 μM).[29]
The plasmids expressing mouse GATA4 protein, pMT2-GATA4, and empty pMT2 were gifts from D. B. Wilson (Department of Pediatrics, St. Louis Children’s Hospital, St. Louis, MO).[44] The plasmids expressing mouse NKX2-5 protein, pMT2-NKX2-5, have been described earlier.[28] The luciferase reporter plasmid used in GATA4–NKX2-5 transcriptional synergy assay and NKX transcriptional assay, pGL3-3xHA, contains three high affinity binding sites for NKX2-5.[28] The luciferase reporter plasmid used in GATA transcriptional assay, NP-112, contains tandem GATA-sites and minimal promoter of rat brain natriuretic peptide (BNP) gene.[45] The pGL3-BNP luciferase reporter containing −534/+4 bp rat BNP proximal promoter described previously was used in hypertrophy assay.[46]
The primary screening assay of compounds’ effect on GATA4–NKX2-5 transcriptional synergy and COS-1 cell culturing has been described earlier.[33] […] (Kinnunen et al., unpublished observation). Briefly, COS-1 cells were seeded at 14 000 cells/well in Isoplate-96 microplates (PerkinElmer, Turku, Finland) and grown overnight. The cells were transfected with the luciferase reporter plasmid pGL3-3xHA 100 ng/well and equal amounts of expression plasmids pMT2-GATA4 and pMT2-NKX2-5 total 50 ng/well. To verify the synergistic effect, the cells were transfected with pMT2-GATA4 or pMT2-NKX2-5 25 ng/well, and the total DNA concentration was adjusted to 50 ng/well with empty pMT2 plasmid. In NKX2-5 and GATA4 luciferase reporter assays, the cells were transfected with reporter plasmid pGL3-3xHA or NP-112 (100 ng/well) and expression plasmid pMT2-NKX2-5 or pMT2-GATA4 (25 ng/well). The ratio of DNA/transfection reagent (Fugene 6, Promega) was 1:3 in all assays. The transfections were performed in serum and antibiotics free media for 6 h. The cells were treated with compounds or vehicle (0.1% DMSO) for 24 h, and the luminescence was measured using neolite Reporter Gene Assay System (PerkinElmer, Turku, Finland) and Victor2 plate reader (PerkinElmer, Turku, Finland).
Raw luciferase data were analyzed in Excel, and clear outliers were removed from triplicates by using the Grubb’s test. Data analysis was performed using R.[49] The luciferase data were first normalized on the basis of the combined mean value of controls. For data visualization and creation of figures, the following R packages were used: ggplot2, cowplot, RColorBrewer, and pheatmap. The heatmaps of the toxicity data were produced with GraphPad Prism 7.00 (GraphPad Software, La Jolla, CA). Statistical significance of luciferase reporter assay data was evaluated by randomized block analysis of variance followed by Dunnett’s post hoc test. […]

[1] = COS-1, compound 3 µM, luciferase reporter activity relative to control
[2] = COS-1, compound 10 µM, luciferase reporter activity relative to control
[3] = COS-1, compound at 3 µM, luciferase reporter activity, % of control
[4] = COS-1, compound at 10 µM, luciferase reporter activity, % of control
[5] = COS-1, compound 3 µM, luciferase reporter activity, spread in separate STDEV column
[6] = COS-1, compound 10 µM, luciferase reporter activity, spread in separate STDEV column
[7] = 3 µM compound, GATA4–NKX2-5 transcriptional synergy reporter, COS-1 cells
[8] = 10 µM compound, GATA4–NKX2-5 transcriptional synergy reporter, COS-1 cells

T1 sequence (Q08369 whole entry): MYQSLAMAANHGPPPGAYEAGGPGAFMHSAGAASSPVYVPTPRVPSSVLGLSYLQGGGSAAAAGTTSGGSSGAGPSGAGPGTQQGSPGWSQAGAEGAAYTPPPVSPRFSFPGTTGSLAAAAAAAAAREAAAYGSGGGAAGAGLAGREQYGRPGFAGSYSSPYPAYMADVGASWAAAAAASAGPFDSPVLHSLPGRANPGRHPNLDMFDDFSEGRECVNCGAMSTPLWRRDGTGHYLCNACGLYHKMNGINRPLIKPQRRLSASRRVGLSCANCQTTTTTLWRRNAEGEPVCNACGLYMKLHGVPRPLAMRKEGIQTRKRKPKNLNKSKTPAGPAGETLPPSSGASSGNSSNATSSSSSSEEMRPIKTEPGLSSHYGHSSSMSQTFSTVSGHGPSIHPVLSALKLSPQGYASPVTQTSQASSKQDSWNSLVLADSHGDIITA
T1 sequence (P42582 whole entry): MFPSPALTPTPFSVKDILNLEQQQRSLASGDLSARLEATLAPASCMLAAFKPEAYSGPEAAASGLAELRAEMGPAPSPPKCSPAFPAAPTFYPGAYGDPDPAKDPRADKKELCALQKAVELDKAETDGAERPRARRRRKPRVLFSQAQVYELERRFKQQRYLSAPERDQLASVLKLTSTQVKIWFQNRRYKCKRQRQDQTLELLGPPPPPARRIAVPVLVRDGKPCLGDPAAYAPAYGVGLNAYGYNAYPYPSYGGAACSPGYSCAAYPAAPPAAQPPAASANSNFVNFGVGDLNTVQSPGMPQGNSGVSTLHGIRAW

SMILES: COC(=O)c1c(-c2ccccc2)nnn1CC1CCCO1 (stereo not shown) [SI61]
- activity at 3 µM [1]: 101%
- activity at 10 µM [2]: 100%

SMILES: CCN(CC)c1ccc(NC(=O)c2c(-c3ccccc3)nnn2CC2CCCO2)cc1 (stereo not shown) [SI62]
- activity at 3 µM [1]: 88.2%
- activity at 10 µM [2]: 72.5%

SMILES: CCN(CC)c1ccc(NC(=O)c2c(-c3ccccc3)nnn2CC(C)C)cc1 [SI68]
- activity at 3 µM [1]: 83.6%
- activity at 10 µM [2]: 69.1%

SMILES: Cc1noc(-c2ccccc2)c1C(=O)Nc1ccc(CN(C)C)cc1 [SI71]
- activity at 3 µM [1]: 109%
- activity at 10 µM [2]: 105%

SMILES: Cc1cc(NC(=O)c2c(C)noc2-c2ccccc2)ccc1C(C)C [SI72]
- activity at 3 µM [1]: 102%
- activity at 10 µM [2]: 95%

SMILES: CCN(CC)c1ccc(NC(=O)c2c(C)noc2-c2noc(C)c2C)cc1 [SI73]
- activity at 3 µM [5]: 86%
- activity at 10 µM [6]: 97.9%

SMILES: CCc1cc(-c2onc(C)c2C(=O)Nc2ccc(N(CC)CC)cc2)no1 [SI75]
- activity at 3 µM [5]: 97.5%
- activity at 10 µM [6]: 88.8%

SMILES: CCN(CC)c1ccc(NC(=O)c2c(C)noc2-c2cc(-c3ccco3)on2)cc1 [SI76]
- activity at 3 µM [5]: 108%
- activity at 10 µM [6]: 100%

SMILES: Cc1cc(-c2onc(C)c2C(=O)N(C)c2ccc3oc(-c4ccccc4)cc(=O)c3c2)no1 [SI77]
- activity at 3 µM [5]: 122%
- activity at 10 µM [6]: 121%

SMILES: CCN(CC)c1ccc(NCc2c[nH]nc2-c2cccs2)cc1 [SI83]
- activity at 3 µM [7]: 99%
- activity at 10 µM [8]: 103%

SMILES: CCN(CC)c1ccc(NCc2c[nH]nc2C2CCCCC2)cc1 [SI85]
- activity at 3 µM [7]: 88.4%
- activity at 10 µM [8]: 82.1%

SMILES: CCN(CC)c1ccc(NC(=O)c2c[nH]nc2C2CCCCC2)cc1 [SI86]
- activity at 3 µM [5]: 94.8%
- activity at 10 µM [6]: 70.7%

SMILES: Cc1cc(NC(=O)c2cnn(C)c2-c2ccccc2)ccc1C(C)C [SI87]
- activity at 3 µM [7]: 88.1%
- activity at 10 µM [8]: 68.4%

SMILES: O=C(Nc1ccc2oc(-c3ccccc3)cc(=O)c2c1)c1c[nH]nc1-c1ccccc1 [SI90]
- activity at 3 µM [7]: 102%
- activity at 10 µM [8]: 71.2%

SMILES: CN(C)c1ccc(C=Nc2cc(-c3ccccc3)nn2-c2ccccc2)cc1 [SI93]
- activity at 3 µM [3]: 93.3%
- activity at 10 µM [4]: 107%

Other lines, results leading:

- activity at 3 µM [1]: 97.8%
- activity at 10 µM [2]: 72.4%
SMILES: CCN(CC)c1ccc(NC(=O)c2c(-c3ccccc3)nnn2Cc2ccccc2)cc1 [SI60]

- activity at 3 µM [1]: 96.6%
- activity at 10 µM [2]: 87.9%
SMILES: CCN(CC)c1ccc(C(=O)Cn2nnnc2-c2ccccc2)cc1 [SI69]

- activity at 3 µM [3]: 109%
- activity at 10 µM [4]: 100%
SMILES: COc1ccc(NC(=O)c2cnoc2-c2ccccc2)cc1 [SI70]

- activity at 3 µM [5]: 97.4%
- activity at 10 µM [6]: 104%
SMILES: CCN(CC)c1ccc(NC(=O)c2c(C)noc2-c2cc(CCOc3ccccn3)on2)cc1 [SI74]

- activity at 3 µM [7]: 98.1%
- activity at 10 µM [8]: 82.3%
SMILES: CCN(CC)c1ccc(NCc2c[nH]nc2-c2ccc(F)cc2)cc1 [SI81]

- activity at 3 µM [3]: 103%
- activity at 10 µM [4]: 87.6%
SMILES: Fc1ccc(-c2n[nH]cc2C=Nc2ccc(N3CCOCC3)cc2)cc1 [SI82]

- activity at 3 µM [1]: 91.3%
- activity at 10 µM [2]: 84.8%
SMILES: CCN(CC)c1ccc(CNCc2c[nH]nc2-c2ccccc2)cc1 [SI84]

- activity at 3 µM [3]: 94.2%
- activity at 10 µM [4]: 89.2%
SMILES: COc1ccc(-c2cc(N=Cc3ccc(N(C)C)cc3)n[nH]2)cc1 [SI91]

- activity at 3 µM [1]: 91.9%
- activity at 10 µM [2]: 89.3%
SMILES: COc1ccc(-c2n[nH]c(N)c2/N=N/c2ccc(C(=O)O)cc2)cc1 [SI95]

- activity at 3 µM [1]: 97.6%
- activity at 10 µM [2]: 78.6%
SMILES: CCCCOC(=O)c1ccc(N=Nc2c(-c3ccc(OC)cc3)n[nH]c2N)cc1 [SI96]

- activity at 3 µM (COS-1, 3 µM, luciferase reporter activity, % of control): 73.3%
- activity at 10 µM (COS-1, 10 µM, luciferase reporter activity, % of control): 61.2%
SMILES: Nc1c(/N=N/c2ccc([N+](=O)[O-])cc2)c(-c2ccccc2)nn1-c1ccccc1 [SI97]
